Assay results as given in patent publication US7871788B2, “Method of judging grade of malignancy of carcinoma cell using ATBF-1” (priority 2004, dated 2011).
“Also recorded” adds a separate entry of the source.

Experiments:
P19 cells [1] = test: Movement of ATBF1 from cytoplasm to nucleus in P19 cells, PI3K family antagonists added; assay type: cell-based, mouse; conditions: P19 cells attached to culture dish, after retinoic acid
Experimental: The present inventors harvested cells in an undifferentiated proliferation state, to which stimulation had not been particularly applied, when at the starting time of culturing P19 carcinoma cells, and carried out an immunohistochemical staining method (ATBF1 staining using D1-120) by the following procedures. The cells were cultured in a chamber slide and fixed in 4% paraformaldehyde that had been adjusted with PBS, followed by washing. A primary antibody solution obtained by dissolving an anti-ATBF1 antibody in 0.05M Tris buffer solution (pH 7.6, containing 1% solution of bovine serum albumin and sodium azide) so that the concentration of the solution became 5 μg/ml was dropped on a slice to cause reaction at 37° C. for about 30 minutes (primary antibody reaction). […] After sufficiently washing, inclusion was carried, which was observed by using a fluorescence microscope (AX70; Olympus) or a confocal laser scanning microscope (LSM5; ZWISS). […]
From the fact about various factors relating to the cell cycle, which was investigated in the past, the movement of proteins between the nucleus and the cytoplasm is known to relate to phosphorylation of amino acid. In particular, it was determined that, for the movement to the nucleus, phosphorylation and dephosphorylation of nuclear localization signals were important. […]

P19 cells [2] = test: Export of ATBF1 from nucleus to cytoplasm in P19 cells, CRM1 inhibitor added; assay type: cell-based, mouse
Experimental: The present inventors harvested cells in an undifferentiated proliferation state, to which stimulation had not been particularly applied, when at the starting time of culturing P19 carcinoma cells, and carried out an immunohistochemical staining method (ATBF1 staining using D1-120) by the following procedures. The cells were cultured in a chamber slide and fixed in 4% paraformaldehyde that had been adjusted with PBS, followed by washing. A primary antibody solution obtained by dissolving an anti-ATBF1 antibody in 0.05M Tris buffer solution (pH 7.6, containing 1% solution of bovine serum albumin and sodium azide) so that the concentration of the solution became 5 μg/ml was dropped on a slice to cause reaction at 37° C. for about 30 minutes (primary antibody reaction). After sufficiently washing, a secondary antibody Alexa Fluor 594-conjugated goat anti-rabbit IgG (as shown in the below-mentioned Examples, when double staining with other monoclonal antibody is carried out, Alexa Fluor 488-conjugated goat anti-mouse IgG is used simultaneously. Both are products by Molecular Probes.) was allowed to act on a specimen to cause a reaction at room temperature for about one hour (secondary antibody reaction). After sufficiently washing, inclusion was carried, which was observed by using a fluorescence microscope (AX70; Olympus) or a confocal laser scanning microscope (LSM5; ZWISS).
Recently, the fact that transport and export of various factors from the nucleus to the cytoplasm is adjusted with CRM1 (Exportin 1 or chromosome region maintenance 1) has been reported. ATBF1 is assumed to have a target sequence of CRM1, that is, nuclear exporting signals existing in three positions (portions starting from the 1267th, 2471th and 2504th positions in the amino acid sequence, respectively) (see FIG. 3b). […]

RT4 = conditions: cited from earlier work
T24 = conditions: T24, p53 nonsense mutant; cited from earlier work
HT1376 = conditions: HT1376, p53 missense mutant, p21 frame shift mutation; cited from earlier work
[3] = system: NB1 cultured cell line derived from human neuroblastoma; test: Western blotting of ATBF1 protein (D1-120) with or without retinoic acid treatment, NB1; assay type: cell-based; conditions: NB1, after retinoic acid treatment 24 hours
Experimental: In order to confirm the probability that the ATBF1 assumed in 10-2 is cut at some sites and it can function as each fraction of the cell, by using three kinds of cultured cells, that is, the cultured cell lines derived from human neuroblastoma, NB1 and GOTO; a mouse undifferentiated embryonic carcinoma cell line p19 and SDS-PAGE and western blotting using an anti-ATBF1 antibody (D1-120) were carried out. A control group and a nerve cell differentiation inducing group were examined, separately. As to the control group, cells of P19, NB1 and GOTO that have been cultured in a serum-containing culture solution were collected and examined. As to the nerve cell differentiation inducing group, retinoic acid treatment was carried out (P19: four days; NB1 and GOTO: 24 hours). However, a culture method of P19 cells is different from that of the other two cell lines. Firstly, in a state in which cells were allowed to float on a bacterial grade dish for four days, retinoic acid (concentration: […]) treatment was carried out, and then a serum-containing culture solution from which the retinoic acid had removed was prepared and transferred to a usual tissue culture dish. Then, culture was continued for three days. According to this method, P19 cells were differentiated and induced to neuron in which neurite was observed. […]

## Cn1c(=O)c2c(ncn2C)n(C)c1=O [caffeine]
P19 cells [1]
  movement of ATBF1 into the nucleus: inhibited in almost all of the cultured cells; also recorded: more completely inhibited
  proliferation state of cells: completely maintained

## CCC(=C/[C@H](C)C/C=C/C(C)=C/[C@@H](C)C(=O)[C@@H](C)[C@H](O)[C@@H](C)C/C(C)=C/C(=O)O)/C=C/[C@@H]1OC(=O)C=C[C@@H]1C [Leptomycin B]
P19 cells [2]; P19 cells after retinoic acid on coated dish
  number of cells undergoing apoptosis: clearly increased
P19 cells [2]; P19 cells after retinoic acid on dish coated with fibronectin and poly-L-ornithine, versus no Leptomycin B
  intranuclear concentration of ATBF1: clearly increased
P19 cells [2]; one more day of culture added, the following day
  cell death: almost all the cells died

## N.N.[Cl][Pt][Cl] [cisplatin]
RT4; RT4, the only one of the three cell lines
  introduction of p21: can introduce p21
RT4; RT4, wild-type p21 and p53
  induction of apoptosis: can be induced
T24
  induction of apoptosis: cannot be induced
HT1376
  induction of apoptosis: cannot be induced

## CC1=C(/C=C/C(C)=C/C=C/C(C)=C/C(=O)O)C(C)(C)CCC1 [retinoic acid]
[3]
  size of ATBF1 protein mainly observed: 210 kDa
